The values below come from patent US20120231140A1, “Organic Compounds” (GIVAUDAN SA, priority 2009, published 2012).

A short description of the experiment: Sensory analysis of the umami enhancing thresholds in Model Broth by a panel of trained experts. Format: in vivo. The settings on record: Model Broth (MSG, maltodextrin, sodium chloride, yeast extract in water); half-tongue test vs blank broth; geometric mean over panelists; read-out: Umami enhancement threshold concentration in "Model Broth" as calculated for the panel. Here is the method: Sensory analysis of the umami enhancing thresholds of the compounds isolated from the ACN fraction of heated avocado pulp as described in example 1.
Water for sensory evaluation was commercially available table water (“Evian®”, Danone, Wiesbaden, Germany).
“Model Broth” contained monosodium L-glutamate monohydrate (MSG) (1.9 g), maltodextrin (6.375 g), sodium chloride (2.9 g) and yeast extract (2.1 g), in 1000 mL of water.
25 mg of each of the compounds listed hereinabove were separately dissolved in 0.2 mL ethanol, then 20.0 mL of model broth was added to each sample. Each sample was then diluted with model broth in 1:1(v/v) steps, until sets of nine solutions with dilution factors of 1, 2, 4, 8, 16, 32, 64, 128, and […] were obtained for each compound.
The samples were evaluated by a panel of trained experts.
The following sensorial evaluation procedure was followed for each set of samples containing a different compound of formula (I).
In a way that avoided any mixing, 1 mL of one of the sample solutions was applied to the left part of each panelists tongue, and 1 mL of Model Broth as a blank value/neutral reference was applied to the right part of the tongue. The panelists were asked to compare the taste on both halves of their tongues. After 5 to 30 seconds the panelists were then asked to rub their tongues against the roof of their mouths. Panelists were then asked if they could distinguish the sample from the blank (Model Broth).
After each sample, the oral cavity was rinsed with water and a break of 5 to 10 minutes was observed until the stimulus completely disappeared.
Multiple sample solutions were tested in this way, one after the other in ascending order of concentration, to determine the weakest concentration at which the compounds of formula (I) enhanced the umami taste of the model broth.
The calculation of the umami enhancement threshold was then performed as described in the literature (ASU: L 00.90-9, 1999), via the geometric mean.
By “umami enhancement threshold” is meant, the mean concentration at which a compound enhances the umami taste of a model broth.
For each panelist, the following formula was used to determine the mean umami enhancement threshold:
E=√{square root over (ce×ce−1)}
wherein ce is the concentration (in ppm) of the weakest concentration identified as having an umami enhancing effect, Ce−1 is the concentration (in ppm) of the anteceding sample solution and E is the mean umami enhancement threshold.
To calculate the mean umami enhancement threshold for the panel, the following formula was used: […]
Wherein n is the number of panelists, Ei is the product of the umami enhancement thresholds calculated for each panelist as specified above.
The panel calculated mean umami enhancement threshold for each compound is indicated in table1 below.

In the case of `CCCCCC=CCC=CCCCCCCCC(O)CC(O)COC(C)=O` (centres unmarked) [1-acetoxy-2,4-dihydroxy-n-heneicosa-12,15-dien], the minimal effective concentration was 0.7 µg/mL.

Turning to `C=CCCCCCCCCCCCC(O)CC(O)COC(C)=O` (centres unmarked) [1-acetoxy-2,4-dihydroxy-n-heptadeca-16-en], the minimal effective concentration is 2.8 µg/mL. Under `C#CCCCCCCCCCCCC(O)CC(O)COC(C)=O` (centres unmarked) [1-acetoxy-2,4-dihydroxy-n-heptadeca-16-yne] stands 1.5 µg/mL; under `C=CCCCCCCCCCCCC(=O)CC(O)COC(C)=O` (centres unmarked) [1-acetoxy-2-hydroxy-4-keto-n-heptadeca-16-en], 3.5 µg/mL; under `CCCCCCCCCCCCCC(=O)CC(O)COC(C)=O` (centres unmarked) [1-acetoxy-2-hydroxy-4-keto-n-heptadecane], 5.6 µg/mL. To `CCCCCC=CCCCCCCCC(=O)CC(O)COC(C)=O` (centres unmarked) [1-acetoxy-2-hydroxy-4-keto-n-octadeca-12-en] belongs 1.8 µg/mL; to `CCCCCC=CCC=CCCCCCC=CC(=O)CC(O)COC(C)=O` (centres unmarked) [1-acetoxy-2-hydroxy-4-oxo-n-heneicosa-5,12,15-trien], 0.7 µg/mL.

In the case of `CCCCCC=CCC=CCCCCCCCC(=O)CC(O)COC(C)=O` (centres unmarked) [1-acetoxy-2-hydroxy-4-oxo-n-heneicosa-12,15-dien], the minimal effective concentration is 3.2 µg/mL.
